Measurements published in patent publication US11926616B2, “Aminopyrazine diol compounds as PI3K-γ inhibitors” (Incyte Corporation, priority 2018, dated 2024).
Read-outs that look alike come from different tables or passages of the source.

Assays:
[1] = target: PI3Kδ (p110δ/p85α) Recombinant Human Protein (Homo sapiens (Human), UniProt O00329); assay: PI3Kδ Scintillation Proximity Assay; type: biochemical; settings: 20 μM PIP2, 2 μM ATP, 3.4 nM PI3Kδ, 120 min, room temperature
Description: Example C. PI3Kδ Scintillation Proximity Assay Materials: [γ-^33P]ATP (10 mCi/mL) and Wheat Germ Agglutinin (WGA) YSi SPA Scintillation Beads was purchased from Perkin Elmer (Waltham, MA). Lipid kinase substrate, D-myo-Phosphatidylinositol 4,5-bisphosphate (PtdIns(4,5)P2)D (+)-sn-1,2-di-O-octanoylglyceryl, 3-O-phospho linked (PIP2), CAS 204858-53-7, was purchased from Echelon Biosciences (Salt Lake City, UT). PI3Kδ (p110δ/p85α) Recombinant Human Protein was purchased from Eurofins (St Charles, MO). ATP, MgCl2, DTT, EDTA, MOPS and CHAPS were purchased from Sigma Aldrich (St. Louis, MO). The kinase reaction was conducted in polystyrene 384-well Greiner Bio-one white plate from Thermo Fisher Scientific in a final volume of 25 μL. Inhibitors were first diluted serially in DMSO and added to the plate wells before the addition of other reaction components. The final concentration of DMSO in the assay was 2%. The PI3Kδ assay was carried out at room temperature in 20 mM MOPS, pH 6.7, 10 mM MgCl2, 5 mM DTT and CHAPS 0.03%. Reactions were initiated by the addition of ATP, the final reaction mixture consisted of 20 μM PIP2, 2 μM ATP, […] [γ-^33P] ATP, 3.4 nM PI3Kδ. Reactions were incubated for 120 min and terminated by the addition of 40 μL SPA beads suspended in quench buffer: 163 mM potassium phosphate pH 7.8, 20% glycerol, 25 mM EDTA. The final concentration of SPA beads is 1.0 mg/mL. After the plate sealing, plates were shaken overnight at room temperature and centrifuged at 1500 rpm for 10 min, the radioactivity of the product was determined by scintillation counting on Topcount (PerkinElmer). IC50 determination was performed by fitting the curve of percent of the solvent control activity versus the log of the inhibitor concentration using the GraphPad Prism 6.0 software.

[2] = target: PI3Kγ (p110γ) Recombinant Human Protein (Homo sapiens (Human), UniProt P48736); assay: PI3K-γ Scintillation Proximity Assay; type: biochemical; settings: 20 μM PIP2, 2 μM ATP, 13 nM PI3Kγ, 120 min, room temperature
PI3Kγ (p110γ) Recombinant Human Protein, sequence (P48736 whole entry): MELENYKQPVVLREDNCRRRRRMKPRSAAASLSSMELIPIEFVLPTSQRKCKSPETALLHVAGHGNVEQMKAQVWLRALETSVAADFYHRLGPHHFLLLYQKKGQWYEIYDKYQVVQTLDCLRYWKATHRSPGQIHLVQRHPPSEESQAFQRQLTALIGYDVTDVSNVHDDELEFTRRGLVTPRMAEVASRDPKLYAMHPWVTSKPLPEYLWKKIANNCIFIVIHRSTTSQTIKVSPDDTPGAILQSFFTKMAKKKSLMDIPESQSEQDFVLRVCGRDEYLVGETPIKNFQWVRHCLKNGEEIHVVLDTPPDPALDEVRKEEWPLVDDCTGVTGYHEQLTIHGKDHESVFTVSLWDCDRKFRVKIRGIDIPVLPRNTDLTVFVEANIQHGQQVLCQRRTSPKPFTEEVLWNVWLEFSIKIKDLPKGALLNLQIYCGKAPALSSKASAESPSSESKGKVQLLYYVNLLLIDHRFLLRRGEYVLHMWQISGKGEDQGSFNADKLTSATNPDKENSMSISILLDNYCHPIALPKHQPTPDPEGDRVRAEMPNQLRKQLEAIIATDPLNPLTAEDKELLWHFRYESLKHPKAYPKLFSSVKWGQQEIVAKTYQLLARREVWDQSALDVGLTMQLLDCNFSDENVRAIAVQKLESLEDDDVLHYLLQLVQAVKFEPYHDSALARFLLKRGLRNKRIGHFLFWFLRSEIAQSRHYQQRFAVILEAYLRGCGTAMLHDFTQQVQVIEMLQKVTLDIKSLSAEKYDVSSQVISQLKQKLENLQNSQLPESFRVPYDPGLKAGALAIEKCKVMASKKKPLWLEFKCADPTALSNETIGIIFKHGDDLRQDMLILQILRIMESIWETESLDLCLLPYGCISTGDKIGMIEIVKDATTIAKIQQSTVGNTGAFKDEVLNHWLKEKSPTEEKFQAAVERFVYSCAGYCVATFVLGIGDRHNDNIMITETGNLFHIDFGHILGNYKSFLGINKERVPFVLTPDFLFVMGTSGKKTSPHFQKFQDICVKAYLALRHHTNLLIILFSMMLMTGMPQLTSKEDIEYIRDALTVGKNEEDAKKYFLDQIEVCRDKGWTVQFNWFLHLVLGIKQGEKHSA
Description: Example B. PI3K-γ Scintillation Proximity Assay Materials: [γ-^33P]ATP (10 mCi/mL) and Wheat Germ Agglutinin (WGA) YSi SPA Scintillation Beads was purchased from Perkin Elmer (Waltham, MA). Lipid kinase substrate, D-myo-Phosphatidylinositol 4,5-bisphosphate (PtdIns(4,5)P2)D (+)-sn-1,2-di-O-octanoylglyceryl, 3-O-phospho linked (PIP2), CAS 204858-53-7, was purchased from Echelon Biosciences (Salt Lake City, UT). PI3Kγ (p110γ) Recombinant Human Protein was purchased from Life technology (Grand Island, NY). ATP, MgCl2, DTT, EDTA, MOPS and CHAPS were purchased from Sigma Aldrich (St. Louis, MO). The kinase reaction was conducted in polystyrene 384-well Greiner Bio-one white plate from Thermo Fisher Scientific in a final volume of 25 μL. Inhibitors were first diluted serially in DMSO and added to the plate wells before the addition of other reaction components. The final concentration of DMSO in the assay was 2%. The PI3Kγ assay was carried out at room temperature in 20 mM MOPS, pH 6.7, 10 mM MgCl2, 5 mM DTT and CHAPS 0.03%. Reactions were initiated by the addition of ATP, the final reaction mixture consisted of 20 μM PIP2, 2 μM ATP, 0.5 μCi [γ-^33P] ATP, 13 nM PI3Kγ. Reactions were incubated for 120 min and terminated by the addition of 40 μL SPA beads suspended in quench buffer: 163 mM potassium phosphate pH 7.8, 20% glycerol, 25 mM EDTA. The final concentration of SPA beads is 1.0 mg/mL. After the plate sealing, plates were shaken overnight at room temperature and centrifuged at 1500 rpm for 10 min, the radioactivity of the product was determined by scintillation counting on Topcount (Perkin-Elmer). IC50 determination was performed by fitting the curve of percent of the solvent control activity versus the log of the inhibitor concentration using the GraphPad Prism 6.0 software.

[3] = system: Phosphorylated Ribosomal Protein S6 (RPS6) in THP-1 cells; assay: THP-1 RPS6 ELISA Assay; type: cell-based, Human; settings: Homo sapiens
Method: Example A. THP-1 RPS6 ELISA Assay
To measure the Phosphorylated Ribosomal Protein S6 (RPS6) in cell lysates, THP-1 cells (Human Acute Monocytic Leukemia) are purchased from ATCC (Manassas, VA) and maintained in RPMI with 10% FBS (Gibco/Life Technologies, Carlsbad, CA). For the assay, THP-1 cells are serum starved overnight in RPMI, then plated in RPMI (2×10^5 cells/well in 90 μL) into 96-well flat-bottom tissue culture treated plates (Corning, Corning, NY), in the presence or absence of a concentration range of test compounds. Covered plates are incubated for 2 hours at 37° C., 5% CO2 then treated with or without 10 nM MCP-1(MYBioSource, San Diego, CA) for 15 minutes at 37° C., 5% CO2. Plates are centrifuged at 1600 RPM and supernatants are removed. Cells are lysed in Lysis Buffer (Cell Signaling, Danvers, MA) with Protease Inhibitor (Calbiochem/EMD, Germany), PMSF (Sigma, St Louis MO), HALTS (Thermo Fisher, Rockford, IL) for 30 min on wet ice. Cell lysates are frozen at −80° C. before testing. The lysates are tested in the Human/Mouse/Rat Phospho-RPS6 ELISA (R&D Systems, Inc. Minn, MN). The plate is measured using a microplate reader (SpectraMax M5—Molecular Devices, LLC Sunnyvale, CA) set to 450 nm with a wavelength correction of 540. IC50 determination is performed by fitting the curve of inhibitor percent inhibition versus the log of the inhibitor concentration using the GraphPad Prism 5.0 software.

[4] = THP-1 cells, serum starved, 2 hours compound, 10 nM MCP-1 for 15 minutes, Phospho-RPS6 ELISA, read-out: PI3Kγ_THP1_RPS6_ELISA IC50

PI3Kδ (p110δ/p85α) Recombinant Human Protein, sequence (O00329 whole entry): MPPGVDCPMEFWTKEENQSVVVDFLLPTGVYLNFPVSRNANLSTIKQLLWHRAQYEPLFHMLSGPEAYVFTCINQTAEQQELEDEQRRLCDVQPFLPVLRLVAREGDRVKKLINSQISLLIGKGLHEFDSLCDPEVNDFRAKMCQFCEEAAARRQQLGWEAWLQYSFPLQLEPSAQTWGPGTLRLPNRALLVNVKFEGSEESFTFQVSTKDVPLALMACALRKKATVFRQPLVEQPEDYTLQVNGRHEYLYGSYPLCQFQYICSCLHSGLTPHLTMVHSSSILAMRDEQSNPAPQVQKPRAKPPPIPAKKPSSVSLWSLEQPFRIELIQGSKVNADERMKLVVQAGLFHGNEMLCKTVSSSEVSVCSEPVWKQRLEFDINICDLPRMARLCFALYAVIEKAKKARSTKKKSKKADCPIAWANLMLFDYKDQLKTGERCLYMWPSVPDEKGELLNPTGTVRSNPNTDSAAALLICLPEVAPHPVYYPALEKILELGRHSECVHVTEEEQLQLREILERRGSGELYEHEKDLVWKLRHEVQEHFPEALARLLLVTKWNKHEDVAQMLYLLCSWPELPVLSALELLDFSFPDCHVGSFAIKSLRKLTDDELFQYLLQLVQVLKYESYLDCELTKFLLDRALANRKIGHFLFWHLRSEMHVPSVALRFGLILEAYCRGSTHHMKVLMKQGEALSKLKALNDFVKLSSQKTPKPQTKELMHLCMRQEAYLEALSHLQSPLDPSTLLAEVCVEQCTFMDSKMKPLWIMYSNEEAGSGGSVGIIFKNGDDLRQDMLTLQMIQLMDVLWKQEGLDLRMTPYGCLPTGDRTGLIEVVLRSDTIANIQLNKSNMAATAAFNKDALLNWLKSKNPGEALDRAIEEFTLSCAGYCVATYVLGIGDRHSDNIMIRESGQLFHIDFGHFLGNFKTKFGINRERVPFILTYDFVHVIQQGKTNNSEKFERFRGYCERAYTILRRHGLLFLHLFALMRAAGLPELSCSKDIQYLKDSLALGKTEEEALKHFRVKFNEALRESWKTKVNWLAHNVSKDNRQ
PI3Kδ (p110δ/p85α) Recombinant Human Protein, sequence (P27986 whole entry partner): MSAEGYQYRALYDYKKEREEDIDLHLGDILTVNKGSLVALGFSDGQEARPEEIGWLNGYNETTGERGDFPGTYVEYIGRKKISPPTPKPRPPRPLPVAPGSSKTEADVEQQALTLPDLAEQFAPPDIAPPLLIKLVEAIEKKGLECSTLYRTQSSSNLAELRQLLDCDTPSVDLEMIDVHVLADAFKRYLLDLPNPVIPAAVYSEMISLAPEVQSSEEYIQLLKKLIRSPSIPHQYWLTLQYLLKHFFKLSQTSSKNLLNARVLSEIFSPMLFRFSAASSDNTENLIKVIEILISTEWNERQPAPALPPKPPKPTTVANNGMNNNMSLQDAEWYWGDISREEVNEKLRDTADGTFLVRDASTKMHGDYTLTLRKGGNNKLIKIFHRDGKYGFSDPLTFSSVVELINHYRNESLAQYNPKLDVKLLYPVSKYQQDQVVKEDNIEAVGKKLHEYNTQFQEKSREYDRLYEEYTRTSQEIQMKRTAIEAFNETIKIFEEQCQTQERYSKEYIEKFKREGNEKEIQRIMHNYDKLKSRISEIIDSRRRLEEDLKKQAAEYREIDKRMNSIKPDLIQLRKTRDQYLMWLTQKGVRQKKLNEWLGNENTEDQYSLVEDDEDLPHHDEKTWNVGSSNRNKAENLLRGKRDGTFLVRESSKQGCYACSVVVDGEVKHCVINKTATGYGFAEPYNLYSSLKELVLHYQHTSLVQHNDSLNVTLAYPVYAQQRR

SMILES | IC50 [1] [µM] | IC50 [2] [µM] | IC50 [3, 4] [nM] | IC50 ([3]; THP-1, read-out: PI3Kγ_THP1_RPS6_ELISA IC50 (nM)) [nM]
[2H]C([2H])([2H])c1ccc(C(O)(CO)C(F)F)cc1-c1cnc(N)c(C(=O)NC2CCOCC2)n1 (single isomer, unassigned) [Example 41] | ≤ 0.1 | ≤ 0.1 | < 100 | –
Cc1ccc(C(O)(CO)C(F)F)cc1-c1cnc(N)c(C(=O)NC23CCC(O)(CC2)C3)n1 (single isomer, unassigned) [Example 44, 3-Amino-6-(5-(1,1-difluoro-2,3-dihydroxypropan-2-yl)-2-methylphenyl)-N-(4-hydroxybicyclo[2.2.1]heptan-1-yl)pyrazine-2-carboxamide] | ≤ 0.1 | ≤ 0.1 | < 100 | –
Cc1ccc(C(O)(CO)C(F)F)cc1-c1cnc(N)c(C(=O)NC2(C)CCOC2)n1 [Example 47, 3-amino-6-(5-((S)-1,1-difluoro-2,3-dihydroxypropan-2-yl)-2-methylphenyl)-N-(3-methyltetrahydrofuran-3-yl)pyrazine-2-carboxamide] | ≤ 0.1 | ≤ 0.1 | < 100 | –
[2H]C([2H])([2H])c1ccc(C(O)(CO)C(F)F)cc1-c1cnc(N)c(C(=O)N[C@@H]2CCCC[C@H]2O)n1 (single isomer, unassigned) [Example 39] | < 2 | ≤ 0.1 | < 500 | –
[2H]C([2H])([2H])c1ccc(C(O)(CO)C(F)(F)F)cc1-c1cnc(N)c(C(=O)NC23CCC(CO)(C2)C3)n1 (single isomer, unassigned) [Example 31] | ≤ 0.1 | ≤ 0.1 | < 100 | –
[2H]C([2H])([2H])c1ccc(C(O)(CO)C(F)(F)F)cc1-c1cnc(N)c(C(=O)NC2CC(C#N)C2)n1 (single isomer, unassigned) [Example 26] | ≤ 0.1 | ≤ 0.1 | < 100 | –
[2H]C([2H])([2H])c1ccc(C(O)(CO)C(F)(F)F)cc1-c1cnc(N)c(C(=O)NC2CCOCC2)n1 (single isomer, unassigned) [Example 17, 3-Amino-6-(2-(methyl-d3)-5-(1,1,1-trifluoro-2,3-dihydroxypropan-2-yl)phenyl)-N-(tetrahydro-2H-pyran-4-yl)pyrazine-2-carboxamide] | ≤ 0.1 | ≤ 0.1 | < 100 | –
[2H]C([2H])([2H])c1ccc(C(O)(CO)C(F)(F)F)cc1-c1cnc(N)c(C(=O)NC2CCOCC2O)n1 (single isomer, unassigned) [Example 28] | ≤ 0.5 | ≤ 0.1 | < 100 | –
Cc1ccc([C@](O)(CO)C(F)F)cc1-c1cnc(N)c(C(=O)N[C@@H](C)CO)n1 (single isomer, unassigned) [Example 43] | ≤ 0.5 | ≤ 0.1 | < 500 | –
[2H]C([2H])([2H])c1ccc(C(O)(C(O)C(F)(F)F)C(F)(F)F)cc1-c1cnc(N)c(-c2c[nH]nc2C)n1 (centres unmarked) [Example 20, 2-(3-(5-Amino-6-(3-methyl-1H-pyrazol-4-yl)pyrazin-2-yl)-4-(methyl-d3)phenyl)-1,1,1,4,4,4-hexafluorobutane-2,3-diol] | ≤ 0.5 | ≤ 0.1 | – | –
Cc1ccc(C(O)(CO)C(F)(F)F)cc1-c1cnc(N)c(C(F)(F)F)n1 (single isomer, unassigned) [Example 25, 2-(3-(5-Amino-6-(trifluoromethyl)pyrazin-2-yl)-4-methylphenyl)-3,3,3-trifluoropropane-1,2-diol] | ≤ 0.5 | ≤ 0.1 | – | –
Cc1ccc([C@](O)(CO)C(F)F)cc1-c1cnc(N)c(C(=O)NC(C)C)n1 (single isomer, unassigned) [Example 46] | – | – | – | < 100
Cc1ccc(C(O)(CO)C(F)(F)F)cc1-c1cnc(N)c(C(=O)N[C@@H](C)CO)n1 (single isomer, unassigned) [Example 33] | ≤ 0.1 | ≤ 0.1 | – | –

Further lines, with some results ahead:

IC50 [1] [µM] | IC50 [2] [µM] | IC50 [3, 4] [nM] | SMILES | IC50 ([3]; THP-1, read-out: PI3Kγ_THP1_RPS6_ELISA IC50 (nM)) [nM]
≤ 0.5 | ≤ 0.5 | – | [2H]C([2H])([2H])n1nccc1-c1nc(-c2cc(C(O)(CO)C(F)(F)F)ccc2C)cnc1N (single isomer, unassigned) [Example 1b, 2-(3-(5-Amino-6-(1-(methyl-d3)-1H-pyrazol-5-yl)pyrazin-2-yl)-4-methylphenyl)-3,3,3-trifluoropropane-1,2-diol] | –
≤ 0.5 | ≤ 0.1 | < 100 | Cc1ccc(C(O)(C(C)(C)O)C(F)(F)F)cc1-c1cnc(N)c(C(=O)NC2CCOCC2)n1 (centres unmarked) [Example 22, 3-Amino-6-(2-methyl-5-(1,1,1-trifluoro-2,3-dihydroxy-3-methylbutan-2-yl)phenyl)-N-(tetrahydro-2H-pyran-4-yl)pyrazine-2-carboxamide] | –
≤ 0.1 | ≤ 0.1 | < 100 | [2H]C([2H])([2H])n1nccc1-c1nc(-c2cc(C(O)(CO)C(F)(F)F)ccc2C)cnc1N (single isomer, unassigned) [Example 1a, 2-(3-(5-Amino-6-(1-(methyl-d3)-1H-pyrazol-5-yl)pyrazin-2-yl)-4-methylphenyl)-3,3,3-trifluoropropane-1,2-diol] | –
≤ 0.1 | ≤ 0.1 | < 100 | [2H]C([2H])([2H])c1ccc(C(O)(CO)C(F)(F)F)cc1-c1cnc(N)c(C(=O)N[C@H]2C[C@](O)(C(F)(F)F)C2)n1 (single isomer, unassigned) [Example 29] | –
≤ 0.1 | ≤ 0.1 | – | Cc1ccc(C(O)(CO)C(F)(F)F)cc1-c1cnc(N)c(C(=O)NC23CCC(O)(CC2)C3)n1 (single isomer, unassigned) [Example 35] | –
≤ 0.1 | ≤ 0.1 | – | Cc1ccc(C(O)(CO)C(F)(F)F)cc1-c1cnc(N)c(C(=O)NCC(C)(C)C#N)n1 (single isomer, unassigned) [Example 34] | –
≤ 0.1 | ≤ 0.1 | – | Cc1ccc(C(O)(CO)C(F)(F)F)cc1-c1cnc(N)c(C(=O)NC23CC(CO)(C2)C3)n1 (single isomer, unassigned) [Example 32] | –
≤ 0.1 | ≤ 0.1 | – | Cc1ccc(C(O)(CO)C(F)(F)F)cc1-c1cnc(N)c(C(=O)N[C@H](C)CO)n1 (single isomer, unassigned) [Example 36] | –
